A short description of data set [1]: Toxicity in Artemia salina assessed as lethal rate at 100 ug/mL. The class given is organism-based. The note with it: in vivo, read-out: Activity.
The subject of the next data set is Fusarium oxysporum. As to the kind of experiment: Antifungal activity against Fusarium oxysporum at 30 ug/ml by agar diffusion test. The class given is functional, organism-based. On the technique in general: A growth-free zone around the sample is the usual read-out of agar diffusion tests.
A further data set has as its system Colletotrichum lagenaria. Kind of data set: Antifungal activity against Colletotrichum lagenarium at 30 ug/ml by agar diffusion test. The format is functional, organism-based.
The subject of a further data set is Escherichia coli. Kind of data set: Antibacterial activity against Escherichia coli at 30 ug/ml by agar diffusion test. The format is functional.

Activity calls are given as the source filed them. The calls are words filed in the database; no cut-off is given here.

For `CC(C)=C[C@H]1C[C@]2(C)[C@H](CC[C@@]3(C)[C@H]2CC[C@H]2Cc4c([nH]c5ccccc45)[C@@]23C)O1`, in data set [1], the mortality at 100 ug/mL came out at 74.2%. Further, the outcome in the data set with Fusarium oxysporum and in the data set on Colletotrichum lagenaria was inactive. Further, the “diameter of the inhibition zone (DIZ)” value in the data set with Escherichia coli is “inactive”.
Consider `C/C=C1\[C@H]2C=C(C)C[C@]1(N)c1ccc(=O)[nH]c1C2`, for which the outcome with Fusarium oxysporum was inactive. Also, the “diameter of the inhibition zone (DIZ)” value in the data set with Escherichia coli is “inactive”.
Take `CC(C)=C[C@H]1C[C@]2(C)[C@H](CC[C@@]3(C)[C@H]2CC[C@H]2CC(=O)c4ccccc4NC(=O)[C@@]23C)O1` [ASPORYZIN A]: in data set [1], the mortality at 100 ug/mL stood at 61.9%. For the same compound, the result in the data set with Fusarium oxysporum and in the data set on Colletotrichum lagenaria was inactive. Further, the “diameter of the inhibition zone (DIZ)” value in the data set with Escherichia coli is “inactive”.
Turning to `CC(C)=C[C@H]1C[C@@]2(C)[C@@H]3CC[C@H]4CC5(O)c6ccccc6N5C(=O)[C@@H]4[C@@]3(C)CC[C@@H]2O1` (stereo partly specified) [ASPORYZIN B], the mortality at 100 ug/mL in data set [1] amounted to 42.9%. In addition, the outcome in the data set with Fusarium oxysporum and with Colletotrichum lagenaria was inactive. The “diameter of the inhibition zone (DIZ)” value with Escherichia coli is “inactive”.
With `CC(C)(O)/C=C/C[C@]1(C)[C@@H](O)CC[C@@]2(C)[C@H]1CC[C@H]1Cc3c([nH]c4ccccc34)[C@@]12C` [ASPORYZIN C], the mortality at 100 ug/mL in data set [1] turned out to be 32.8%. Also, the outcome in the data set on Fusarium oxysporum and in the data set on Colletotrichum lagenaria was inactive. Also, in the data set on Escherichia coli (read-out: DIZ), the zone of inhibition at 30 µg/mL is 8.3 mm.
For the compound `C=C1[C@H](Cc2c[nH]c3ccccc23)CC[C@H]2[C@](C)(CCC=C(C)C)[C@@H](O)CC[C@]12C` [EMENIVEOL], the mortality at 100 ug/mL in data set [1] came out at 31.4%. The result with Fusarium oxysporum and with Colletotrichum lagenaria was inactive. Further, the “diameter of the inhibition zone (DIZ)” value in the data set with Escherichia coli was “inactive”.
In the case of `CC(C)=CCC[C@]1(C)[C@@H](O)CC[C@@]2(C)[C@H]1CC[C@H]1Cc3c([nH]c4ccccc34)[C@@]12C` [EMINDOLE SB], the mortality at 100 ug/mL in data set [1] was determined as 60.3%. Further, the result in the data set on Fusarium oxysporum and in the data set on Colletotrichum lagenaria was inactive. In the data set on Escherichia coli, the “diameter of the inhibition zone (DIZ)” value was “inactive”.
